Tests used:
Format in all cases: in vivo
ICR mice [1] = test: Anti-epilepsy activity, scPTZ test, mouse
Excerpt: In this experiment, each test compound sample was formulated as described in Biological Experimental Example I, and administered intraperitoneally to the test animals (mice; ICR or Rat; SD); Experimental animals, male ICR mice and male SD rats, were purchased from OrientBio or Nara biotech, Korea, and housed 4-5 mice per a cage for 4-5 days. The range of mice body weight was used between 19 and 26 grams and range of rats body weight was used between 100 and 130 grams. After Peak time (0.5, 1, 2 and 4 hr) from the administration, PTZ (Pentylenetetrazol) was administered subcutaneously in the concentration capable of inducing 97% intermittent convulsions (mice: 76-110 mg/kg·bw, 10 μl/g, or rats: 79-110 mg/kg·bw, 2 μl/g). If clonic seizure was not observed for at least 30 minutes in the PTZ administered animal, it can be considered that the test compound has anti-epilepsy activity. The median effective dose (ED50) is determined using 6 animals per a concentration (total three different concen-trations), and calculated by Litchfield and Wicoxon log-probit method which is a dose-response relationship.

ICR mice [2] = test: Anti-epilepsy activity, MES test, mouse
Method: (§1) In the MES test (Ref., G. Villetti et al. Neuropharmacology 40 (2001) 866-878), an electrical stimulus (mice: 50 mA, 60 Hz, 0.2 sec, and rats: 150 mA, 60 Hz, 0.2 sec in the test animal) supplied by an 11A Shocker (IITC Life Science Company) was delivered through corneal electrodes. All mice or rats assigned to any electroshock at peak time were treated with each test compound sample which was dissolved in 30% PEG 400 or 20% tween 80 prepared by saline solvent applied orally before the test. […] Three doses of the test sample were administered orally to 9-18 animals (3-6 mice per dose) for evaluating the respective doses at which 50% of the animals were protected from seizure (ED50). The ED50 value (median effective dose) was calculated by Litchfield and Wicoxon log-probit method which is a dose-response relationship. Experimental animals, male ICR mice and male SD rats, were purchased from OrientBio, Samtako, or Nara Biotech, Korea, and housed in cages (4-5 mice or 3 rats per cage) for 4-5 days. The range of mice body weight was between 19 and 25 grams and range of rats body weight was between 100 and 130 grams.

SD rats = test: Anti-epilepsy activity, MES test, rat; details: for ED50: Rattus norvegicus, po
Method: as §1

Sprague-Dawley rats [3] = test: Lithium-pilocarpine induced epilepsy test, prevention; details: i.p.
Method: Male Sprague-Dawley rats (purchased from Orient Bio Inc. Korea) of body weight 175-200 grams were used for these studies and 3 rats per cage were housed for 4-5 days. On the day prior to SE, rats received 127 mg/kg lithium chloride (Sigma, St. Louis, Mo., U.S.A.) intraperitoneally (i.p.). Approximately 18-20 h following this treatment, rats were given an i.p. injection of CD97 dose (30-43 mg/kg) pilocarpine (Sigma). An i.p. injection of 2 mg/kg methyl-scopolamine (Sigma) was administered 30 min prior to pilocarpine to block the effects of the muscarinic agonist on peripheral cholinergic receptors. Test drugs were dissolved in 30% PEG 400 or 20% tween80 (Sigma).
The drugs were administered intraperitoneally (i.p.) in a volume of 2 ul/g body weight. Pharmacological effects of all of the test materials were evaluated to compare test groups (n=6) with a control group (n=6). Control group was administered vehicle only. The efficacy was measured 0.5, 1, 2, or 4 hours after the administration of the test material. The time point that the most animals were protected was defined as peak time and the ED50 was determined at peak time. The animals were then transferred to observation cages and observed continuously for 90 min. Seizure was elicited in approximately 95% of the control group. Protection was defined as complete absence of seizure grade 3-5 (Racine scale; Racine, 1972) over the 90-min observation period. The effective dose of the compound necessary to protect 50% of the animals against seizures compared to controls (i.e. ED50) was determined by a curve fitting program (Excel 2007, Microsoft).

Sprague-Dawley rats [4] = test: Antiallodynic activity on Complete Freund's Adjuvant (CFA)-induced inflammatory pain model; details: intraperitoneally
Method: Male, Sprague-Dawley rats (210-250 g, Nara Bio, Korea) were habituated for 1 week before CFA injection and allowed free access to food and water throughout the experimentation. Room temperature and humidity were maintained at 24±2 and 50±10%, respectively.
CFA-induced inflammatory pain was induced by the procedure of Nagakura et al. (2003) and Gregory P. et al. (2010) with minor modifications. CFA (sigma, USA) was injected in the right plantar with a 100 ul volume under gaseous anesthesia with isoflurane. Sham controls were injected with 100 ul of saline and preparation of the vehicles without compound in the vehicle control group. Tactile sensitivity (Mechanical allodynia) was evaluated using von Frey monofilaments before and after treatment, and the animals were included in the study only if the withdrawal threshold value was less than 4 g. One week after surgery, CFA-infused treatment animals (n=4-6), sham-operated animals (n=12), and vehicle control animals (n=17) were tested for tactile sensitivity with von Frey monofilaments 3 trials for each animal. All Animals were placed in a stainless steel mesh chamber and habituated for 30 min in the test box. The tactile sensitivity for ipsilateral hind paw was measured using the up-and-down method (Dixon, 1980) with seven von Frey monofilaments (0.4, 1, 2, 4, 6, 8, and 15 g) to 3 trials. Tactile sensitivity test was followed by Dixon's method (Dixon, 1980). The 50% paw withdrawal threshold for each paw was calculated using the following formula: [Xth] log=[vFr] log+ky where [vFr] is the force of the last von Frey used, k=0.2249 which is the average interval (in log units) between the von Frey monofilaments, and y is a value that depends upon the pattern of withdrawal responses (Dixon, 1980).
Antiallodynic effect of compound was evaluated at the dose of 10-60 mg/kg (n=4-6), intraperitoneally administrated in a volume of 5 ul/g bw in a vehicle of 30% (v/v) PEG or 20% (v/v) Tween 80. The test was performed peak time of efficacy (0.5 or 1 hr) after compound administration.
The relative values compared to the sham (% control) were calculated and shown in Table 4, which show an antiallodynic effect of Compound 1 on CFA-induced pain model in rats.

Sprague-Dawley rats [5] = test: Antiallodynic activity on Chung model (SNL, spinal nerve ligation); details: orally; for SNL efficacy %: 30 mg/kg; for ED50: Rattus norvegicus, po, at peak time
Excerpt: Male Sprague-Dawley rats (100-130 g, Orient Bio, Korea) were habituated for 1 week before the experiment and allowed free access to food and water throughout the experimentation. Room temperature and humidity were maintained at 24±2 and 50±10%, respectively. The neuropathic surgery (SNL, Spinal nerve ligation) model was done as described in Kim and Chung (1992). Briefly, an animal was put under gaseous anesthesia with isoflurane. The left lumber spinal nerve L5 and L6 were isolated and tightly ligated with 6-0 silk thread. The wound muscle was closed with Catgut® chrom 3/0 thread and skin was closed with Dafilon 3/0 tread. Sham controls were prepared in the same manner with the spinal nerves exposed, but with no ligated L5 and L6 nerves. Preparation of the vehicle controls were identical to the group treated with compound, except for administration of vehicles without compound in the vehicle control group.
Tactile sensitivity (Mechanical allodynia) was evaluated using von Frey monofilaments before and after treatment, and animals were included in the study only if the withdrawal threshold value was less than 4 g. One week after surgery, SNL-operated animals, sham-operated animals and vehicle control animals were tested for tactile sensitivity with von Frey monofilaments 3 trials in each animal. All Animals were placed in a stainless steel mash chamber and habituated for 30 min in the test cage. The tactile sensitivity for the ipsilateral hind paw was measured using the up-and-down method (Dixon, 1980) with seven von Frey monofilaments (0.4, 1, 2, 4, 6, 8, and 15 g) in 3 trials. The tactile sensitivity test was followed by Dixon's method (Dixon, 1980). The 50% paw withdrawal threshold for each paw was calculated using the following formula: [Xth] log=[vFr] log+ky where [vFr] is the force of the last von Frey used, k=0.2249 which is the average interval (in log units) between the von Frey monofilaments, and y is a value that depends upon the pattern of withdrawal responses (Dixon, 1980).
All animals were fasted 18 h before the administration of the compounds. Antiallodynic effect of compounds were evaluated at the three dose, orally administrated in a volume of 5 ul/g, bw in a vehicle of 30% (v/v) PEG 400 or 20% (v/v) Tween 80. The test was performed at the peak time of efficacy after compound administration.
The relative values compared to the sham group (% control) were calculated and shown in Table 3, which show an antiallodynic effect of the test compounds on SNL model in rats.

[6] = Rattus norvegicus, ip, read-out: CFA-induced pain model efficacy %
[7] = po, read-out: MES test (po) efficacy %

Row | Compound | MES test (po) Peak time (ICR mice [2]) | MES test (po) Peak time (SD rats) | ED50 (SD rats) | response vs control in vivo at 50 mg/kg (Sprague-Dawley rats [4]; [6]) | CFA-induced pain model Peak Time (Sprague-Dawley rats [4]) | SNL Peak Time (Sprague-Dawley rats [5]) | SNL efficacy % (Sprague-Dawley rats [5]) | responders at 60 mg/kg (ICR mice [2]; [7]) | also measured
1 | C[C@H](OS(N)(=O)=O)[C@@H](O)c1ccccc1Cl [Example 1, (1S, 2S)-1-(2-chlorophenyl)-1-hydroxypropan-2-yl sulfamate] | 2 h | – | – | – | – | – | – | – | scPTZ test (ip) Peak time (ICR mice [1]): 0.5 h; ED50 (ICR mice [1]; ip): 76.6 mg/kg; ED50 (ICR mice [2]; po): 46.9 mg/kg
2 | C[C@@H](OS(N)(=O)=O)[C@H](O)c1ccc(Cl)cc1Cl [Example 4, (1R, 2R)-1-(2,4-dichlorophenyl)-1-hydroxypropan-2-yl sulfamate] | – | 4 h | – | – | – | – | – | – | scPTZ test (ip) Peak time (ICR mice [1]): 2 h; scPTZ test (ip) efficacy % (ICR mice [1]; 100 mg/kg): 100(100%); MES test (po) efficacy % (SD rats; 10 mg/kg): 33%
3 | C[C@@H](OS(N)(=O)=O)[C@H](O)c1cccc(Cl)c1Cl [Example 10, (1R, 2R)-1-(2,3-dichlorophenyl)-1-hydroxypropan-2-yl sulfamate] | 1 h | – | – | – | – | – | – | – | responders at 100 mg/kg (ICR mice [2]; po, 100 mg/kg, read-out: MES test (po) efficacy %): 83.3%; Lithium pilocarpine model (pre) peak time (Sprague-Dawley rats [3]): 1 h; Lithium pilocarpine model (pre) efficacy % (Sprague-Dawley rats [3]; 100 mg/kg): 66.6%
4 | C[C@@H](OS(N)(=O)=O)[C@H](O)c1ccccc1F [Example 18, (1R, 2R)-1-(2-fluorophenyl)-1-hydroxypropan-2-yl sulfamate] | 1 h | (2 h) | 14.2 mg/kg | 46.6% | 0.5 h | 0.5 h | 30(48.2%) | – | ED50 (ICR mice [2]; po): 62 mg/kg
5 | C[C@H](OS(N)(=O)=O)[C@@H](O)c1ccccc1I [Example 19, (1S, 2S)-1-(2-iodophenyl)-1-hydroxypropan-2-yl sulfamate] | 1 h | – | – | – | 1 h | 1 h | – | – | responders at 30 mg/kg (ICR mice [2]; po, 30 mg/kg, read-out: MES test (po) efficacy %): 66.6%; response vs control in vivo at 30 mg/kg (Sprague-Dawley rats [4]; Rattus norvegicus, ip, 30 mg/kg, read-out: CFA-induced pain model efficacy %): 24.3%; ED50 (Sprague-Dawley rats [5]): 44.6 mg/kg
6 | C[C@@H](OS(N)(=O)=O)[C@H](O)c1ccccc1I [Example 20, (1R, 2R)-1-(2-iodophenyl)-1-hydroxypropan-2-yl sulfamate] | 1 h | (2 h) | 20.1 mg/kg | 28.7% | 0.5 h | 1 h | 30(58.7%) | 16.6% | –
7 | COCO[C@@H](c1ccccc1Cl)[C@H](C)OS(N)(=O)=O [Example 69, (1S, 2S)-1-(2-chlorophenyl)-1-(methoxymethoxy)propan-2-yl sulfamate] | – | 1 h | – | – | 0.5 h | 1 h | – | – | MES test (po) efficacy % (SD rats; 20 mg/kg): 16.6%; ED50 (Sprague-Dawley rats [4]; Rattus norvegicus, ip, at peak time): 29.5 mg/kg; ED50 (Sprague-Dawley rats [5]): 48.2 mg/kg; Lithium pilocarpine model (pre) peak time (Sprague-Dawley rats [3]): 1 h; Lithium pilocarpine model (pre) efficacy % (Sprague-Dawley rats [3]; 50 mg/kg): 33.3%
8 | COCO[C@H](c1ccccc1F)[C@@H](C)OS(N)(=O)=O [Example 73, (1R, 2R)-1-(2-fluorophenyl)-1-(methoxymethoxy)propan-2-yl sulfamate] | 1 h | (4 h) | 34.8 mg/kg | 38.5% | 0.5 h | 1 h | 30(31.3%) | 33.3% | –
9 | COCO[C@H](c1ccccc1I)[C@@H](C)OS(N)(=O)=O [Example 75, (1R, 2R) 1-(2-iodophenyl)-1-(methoxymethoxy)propan-2-yl sulfamate] | 1 h | (2 h) | 4.2 mg/kg | 28.1% | 0.5 h | 1 h | 30(64.9%) | 33.3% | –

— US10351519B2, “Sulfamate derivative compounds, processes for preparing them and their uses” (BIO-PHARM SOLUTIONS CO., LTD., priority 2016, dated 2019)
